Measurements as given in patent US20050164951A1, “Inhibitors for the soluble epoxide hydrolase” (The Regents of the University of California, priority 2003, published 2005).
Read-outs that look alike come from different tables or passages of the source.

Assays:
rat sEH = target: T1, rat sEH (Rattus norvegicus, UniProt P80299); experiment: Relative turnover of arachidonic acid epoxides by rat sEH; assay type: biochemical; details: for Relative EET Turnover: Table 20, arachidonic acid epoxides with the rat sEH; for relative substrate turnover of the epoxy arachidonates: 1:1:2 mixture of 8,9-, 11,12-, and 14,15-EET hydrolyzed to 30% by rat renal cortex cytosol
T1 construct: was hydrolyzed to 30% by rat renal cortex cytosol; from tissue; host or cells: rat renal cortex cytosol
T1 sequence (P80299 1-554): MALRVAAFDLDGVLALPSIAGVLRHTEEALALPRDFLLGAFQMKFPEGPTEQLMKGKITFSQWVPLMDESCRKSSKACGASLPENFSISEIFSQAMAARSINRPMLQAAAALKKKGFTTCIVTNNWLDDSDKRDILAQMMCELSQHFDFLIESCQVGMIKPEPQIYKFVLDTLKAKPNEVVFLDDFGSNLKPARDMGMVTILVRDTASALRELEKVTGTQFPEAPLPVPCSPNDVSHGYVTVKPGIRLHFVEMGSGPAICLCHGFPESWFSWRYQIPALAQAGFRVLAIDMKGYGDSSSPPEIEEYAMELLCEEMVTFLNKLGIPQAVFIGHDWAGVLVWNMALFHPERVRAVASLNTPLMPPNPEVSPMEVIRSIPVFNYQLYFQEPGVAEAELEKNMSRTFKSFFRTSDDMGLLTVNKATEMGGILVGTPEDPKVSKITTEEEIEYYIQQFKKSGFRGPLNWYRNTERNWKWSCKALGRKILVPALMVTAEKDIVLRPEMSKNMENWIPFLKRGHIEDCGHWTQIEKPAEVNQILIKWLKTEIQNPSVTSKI
Experimental: For epoxy fatty acid hydrolysis, the soluble epoxide hydrolase prefers substrates with epoxide moieties that are more distant from the carboxyl terminal. Specifically the substrate preference decreases in the order of 14,15-EET >11,12-EET >8,9-EET >>>5,6-EET for the epoxides of arachidonic acid. Independently, the relative substrate turnover of the epoxy arachidonates were calculated at 0.1:8.1:14.3 when a 1:1:2 mixture of 8,9-, 11,12-, and 14,15-EET fatty acid was hydrolyzed to 30% by rat renal cortex cytosol. By considering the primary pharmacophore of the urea to be a transition-state analog of epoxide hydrolysis, preferred inhibitors have now been developed which incorporate long aliphatic acids. These compounds are better substrate and transition state mimics than those incorporating shorter aliphatic acids. Accordingly, optimal soluble epoxide hydrolase inhibitors can be obtained by producing compounds with aliphatic acid substituents (i.e. a tertiary pharmacophore) which are separated from the primary pharmacophore by an equivalent distance as the terminal acid is separated from the epoxide in optimal substrates. Within the enzyme active site, epoxy fatty acids have been predicted to exist in an extended or pseudo-linear confirmation. Therefore, both the epoxy fatty acids and the aliphatic acid containing urea structures were approximated as two dimensional linear representations and measurements were made on each species. The critical measurements taken were distances (in angstroms) from the carboxylate hydroxyl to the urea carbonyl and the urea nitrogens.

[1] = Metabolic stability in rat hepatic microsomes with NADPH generating system; assay type: in vitro ADME; details: rat, microsomes
Experimental: FIG. 6 is a graph illustrating the metabolic stabilities of 1-adamantyl-3-dodecyl urea (686) and 1-cyclohexyl-3-dodecyl urea (297) in rat hepatic microsomes. Microsomes were incubated with 1 μM 686 or 297 in the presence of an NADPH generating system. Data are expressed as mean ±SD of triplicate experiments.
To evaluate the metabolic stability of these inhibitors, the microsomal and NADPH dependent metabolism of a number of potent sEH inhibitors was evaluated. […] The first step in the metabolic transformation of the n-alkyl to n-alkanoic acid derivatives is an NAPDH dependent process carried out by cytochrome P450 dependent omega hydroxylation in rodent and human hepatic tissue preparations (see FIG. 8). When in vivo metabolism was evaluated, evidence for the beta-oxidation of the alkanoic acid derivatives was also found (see FIG. 9).

[2] = Pharmacokinetics after oral gavage in mice; assay type: in vivo, mouse; details: 5 mg/kg orally
Experimental: Animals. Male Swiss Webster mice, 6 weeks-old, were obtained from Charles River (Calif., USA). […] The body weight of animals used in all the experiments ranged from 28 g to 38 g. […] Administration and measurement. […] Then the samples were centrifuged at 6000 rpm for 5 min, and the ethyl acetate layer was dried under nitrogen. The residue was reconstituted in 25 μL of methanol, and aliquots (5 μL) were injected onto the LC-MS/MS system. Analysis. Pharmacokinetics analysis was performed using SigmaPlot software system (SPSS science, Chicago, Ill.). […] AUC=a/b Where: • C=the total blood concentration at time t • a=the extrapolated zero intercept b=the apparent first-order elimination rate constant

human sEH = target: T2, human sEH (Homo sapiens, UniProt P34913); experiment: Inhibition of recombinant human sEH, IC50 assay with 4-nitrophenyl-trans-2,3-epoxy-3-phenylpropyl carbonate as substrate; assay type: biochemical
T2 construct: made in house; host or cells: baculovirus expression system
T2 sequence (P34913 1-555): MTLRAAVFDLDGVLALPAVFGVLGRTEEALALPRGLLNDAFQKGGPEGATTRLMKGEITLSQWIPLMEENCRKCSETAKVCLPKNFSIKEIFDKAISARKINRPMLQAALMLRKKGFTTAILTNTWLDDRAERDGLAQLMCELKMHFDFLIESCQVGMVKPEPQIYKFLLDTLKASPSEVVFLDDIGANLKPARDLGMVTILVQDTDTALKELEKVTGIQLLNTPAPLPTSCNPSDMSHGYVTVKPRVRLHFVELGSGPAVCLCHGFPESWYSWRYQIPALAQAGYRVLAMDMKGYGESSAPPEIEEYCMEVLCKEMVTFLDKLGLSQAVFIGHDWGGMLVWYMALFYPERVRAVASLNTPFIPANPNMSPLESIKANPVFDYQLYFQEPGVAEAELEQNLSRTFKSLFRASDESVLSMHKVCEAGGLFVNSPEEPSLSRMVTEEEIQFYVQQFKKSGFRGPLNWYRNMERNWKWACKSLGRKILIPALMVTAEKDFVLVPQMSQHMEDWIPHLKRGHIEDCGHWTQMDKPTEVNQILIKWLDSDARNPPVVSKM
Experimental: (§1) Assays were performed in triplicate. […] The curve was generated from at least three separate runs, each in triplicate, to obtain the standard deviation (SD) given in Table 1 thru Table 4.

mouse sEH = target: T3, mouse sEH (Mus musculus, UniProt P34914); experiment: Inhibition of recombinant mouse sEH, IC50 assay with 4-nitrophenyl-trans-2,3-epoxy-3-phenylpropyl carbonate as substrate; assay type: biochemical; details: read-out: IC50 (μM) Mouse sEH
T3 construct: made in house; host or cells: baculovirus expression system
T3 sequence (P34914 1-554): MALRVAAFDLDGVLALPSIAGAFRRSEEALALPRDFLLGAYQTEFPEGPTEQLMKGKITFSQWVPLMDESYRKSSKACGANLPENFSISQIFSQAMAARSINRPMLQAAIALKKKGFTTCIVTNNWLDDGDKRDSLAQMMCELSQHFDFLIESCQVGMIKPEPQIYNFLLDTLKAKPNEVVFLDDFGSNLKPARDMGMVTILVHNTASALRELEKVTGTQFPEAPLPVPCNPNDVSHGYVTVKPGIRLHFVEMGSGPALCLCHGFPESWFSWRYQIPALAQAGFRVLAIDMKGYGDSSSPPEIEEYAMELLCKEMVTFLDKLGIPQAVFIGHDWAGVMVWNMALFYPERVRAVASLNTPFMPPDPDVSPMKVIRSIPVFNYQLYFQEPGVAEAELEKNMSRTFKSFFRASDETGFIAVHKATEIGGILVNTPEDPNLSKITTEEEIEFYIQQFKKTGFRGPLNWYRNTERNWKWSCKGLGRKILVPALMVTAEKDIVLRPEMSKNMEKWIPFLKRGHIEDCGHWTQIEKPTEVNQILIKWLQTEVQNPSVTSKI
Experimental: as §1

Water solubility = assay type: physicochemical; details: for solubility relative to the corresponding cyclohexyl derivative: 772 vs. 789, 791 vs. 790, 297 vs. 686; for water solubility: compared with non-functionalized lipophilic inhibitors (791, 790)
mouse and human sEH = experiment: sEH IC50 assay, comparisons of the text made for both enzymes or without naming the enzyme; assay type: biochemical
Experimental: as §1

[3] = Blood concentration after oral administration of 950 and AUDA-nBE, human pharmacokinetic profile; assay type: in vivo; details: see FIGS. 15-27
Experimental: FIG. 16 provides a sample preparation procedure for a pharmacokinetic study. A 5 μl whole blood sample was drawn into a capillary at a specific time point, each sample was extracted and anaylzed by LC/MS-MS. […] AUDA is the active metabolite of AUDA-nBE. […] 0.05 mg/kg. (B). 0.1 mg/kg. […] The compounds were administered at the same time in the same formulation. […] 21 mg (0.3 mg/kg) 950 and AUDA-nBE were orally administrated with starch. (B). 7 mg (0.1 mg/kg) formulated 950 and AUDA-NBE were taken with (HPMC, starch and lactose). (C). […] 950 with HPMC and Starch. (B). 950 in lactose and HPMC. […] HPMC forms a gel which slowly erodes; lactose enhances erosion at it moves through the gut and starch retards it. These formulations are combined, ball milled, and then placed in ‘0’ capsule and not compressed.

[4] = Effect of compound 950 and of Norvasc on blood pressure; assay type: in vivo; details: 950 0.05 mg/Kg per day
[5] = Table 2, […] enzyme, 5 min preincubation, pH 7.4, 30° C., means ± SD, read-out: IC50 (μM) Human sEH
[6] = Table 2, […] enzyme, 5 min preincubation, pH 7.4, 30° C., means ± SD

SMILES: CCCCC/C=C\C/C=C\C/C=C\CC1OC1CCCC(=O)O (stereo not shown) [5,6-EET]
- Relative EET Turnover (rat sEH): 0.1

SMILES: CCCCC/C=C\C/C=C\CC1OC1C/C=C\CCCC(=O)O (stereo not shown) [8,9-EET]
- relative substrate turnover of the epoxy arachidonates (rat sEH): 0.1
- Relative EET Turnover (rat sEH): 1

SMILES: CCCCC/C=C\C[C@H]1O[C@H]1C/C=C\C/C=C\CCCC(=O)O [11,12-EET]
- relative substrate turnover of the epoxy arachidonates (rat sEH): 8.1
- Relative EET Turnover (rat sEH): 8.1

SMILES: CCCCCC1OC1C/C=C\C/C=C\C/C=C\CCCC(=O)O (stereo not shown) [14,15-EET]
- relative substrate turnover of the epoxy arachidonates (rat sEH): 14.3
- Relative EET Turnover (rat sEH): 14.3

SMILES: O=C(NC1CCCCC1)NC12CC3CC(CC(C3)C1)C2 [Compound 192, 1-adamantyl-3-cyclohexylurea]
- metabolic stability in microsomal preparations [1]: improved stability

SMILES: CCCCCCCCCCCCNC(=O)NC12CC3CC(CC(C3)C1)C2 [Compound 686, 1-adamantyl-3-dodecylurea, reference compound]
- time to reach the maximum concentration [2]: 2 h
- IC50 (human sEH; [5]): 0.1 ± 0.01 µM
- IC50 (mouse sEH; Table 2, 0.12 μM enzyme, 5 min preincubation, pH 7.4, 30° C., means ± SD): 0.05 ± 0.01 µM
- solubility relative to the corresponding cyclohexyl derivative (Water solubility): approximately 2 x

SMILES: CCCCCOC(=O)CCCNC(=O)Nc1cccc(Cl)c1 [Compound 767, 1-(3-chlorophenyl)-3-(3-pentoxycarbonylpropyl)urea]
- better inhibition than 761 (mouse and human sEH; methylene carbon left versus right of the carbonyl): 20 fold
- IC50 (human sEH; Table 3, […] enzyme, 5 min preincubation, pH 7.4, 30° C., means ± SD, read-out: IC50 (μM) Human sEH): 2.1 ± 0.07 µM
- IC50 (mouse sEH; Table 3, […] enzyme, 5 min preincubation, pH 7.4, 30° C., means ± SD): 0.37 ± 0.04 µM

SMILES: CCCCCOC(=O)CCCNC(=O)NC1CCCCC1 [Compound 772, 1-Cyclohexyl-3-(3-pentoxycarbonylpropyl)urea]
- increase of inhibitor potency over the 3-chlorophenyl analog (767) (mouse and human sEH): 10 fold
- IC50 (human sEH; [5]): 1.02 ± 0.05 µM
- IC50 (mouse sEH; [6]): 0.05 ± 0.01 µM
- water solubility (Water solubility): increases their water solubility

SMILES: COC(=O)CCCNC(=O)NC1CCCCC1 [Compound 774]
- fold higher activity than the esters of acetic and propanoic acids (549 and 635) (mouse and human sEH; for both enzymes): 8-100 fold
- IC50 (human sEH): 6.2 ± 0.5 µM
- IC50 (mouse sEH; Table 1, 0.12 μM enzyme, 5 min preincubation, pH 7.4, 30° C., [S] = 40 μM, means ± SD of three experiments): 0.33 ± 0.03 µM

SMILES: CCCCCOC(=O)CCCNC(=O)NC12CC3CC(CC(C3)C1)C2 [Compound 789]
- increase of inhibitor potency over the 3-chlorophenyl analog (767) (mouse and human sEH): 10 fold
- IC50 (human sEH; [5]): 0.17 ± 0.01 µM
- IC50 (mouse sEH; [6]): 0.05 ± 0.01 µM
- solubility relative to the corresponding cyclohexyl derivative (Water solubility): approximately 2 x
- water solubility (Water solubility): increases their water solubility

SMILES: CCCCCCCCCCNC(=O)NC12CC3CC(CC(C3)C1)C2 [Compound 790, reference compound]
- IC50 (human sEH; [5]): 0.1 ± 0.01 µM
- IC50 (mouse sEH; [6]): 0.05 ± 0.01 µM
- solubility relative to the corresponding cyclohexyl derivative (Water solubility): approximately 2 x

SMILES: COCCOCCCCCNC(=O)NC12CC3CC(CC(C3)C1)C2 [Compound 908]
- pharmacokinetics [3]: improved pharmacokinetics
- IC50 (human sEH; Table 7, established protocols, read-out: IC50 (μM) Human sEH): 0.16 ± 0.01 µM
- IC50 (mouse sEH; Table 7, established protocols): 0.05 ± 0.01 µM
- water solubility (Water solubility): increased water solubility

SMILES: CCOC(=O)C1=C(COCCN)NC(C)=C(C(=O)OC)C1c1ccccc1Cl (stereo not shown) [Norvasc]
- Systolic Avg. ([4]; Norvasc 5.0 mg per day (separate experiment), W/O 950 151, W/O Norvasc 145): 143
- Pulse Avg. ([4]; Norvasc 5.0 mg per day, W/O 950 97, W/O Norvasc 79): 89
- Diastolic Avg. ([4]; Norvasc 5.0 mg per day, W/O 950 103, W/O Norvasc 100): 95
